Experimental data from patent US20240382629A1, “HETEROBIVALENT AND HOMOBIVALENT AGENTS TARGETING FIBROBLAST ACTIVATION PROTEIN ALPHA AND/OR PROSTATE-SPECIFIC MEMBRANE ANTIGEN” (The Johns Hopkins University, priority 2021, published 2024).
Several values for one entry are separate records, joined by “and”; a condition that tells them apart may be missing. Identical values can stand only once.

Legend:
[1] = Biodistribution of representative compounds (Example 13), % ID/g in tissues of tumor-bearing mice; assay type: in vivo, mouse; conditions: 60 min, 2 μCi per mouse
[2] = Biodistribution of representative compounds ([^18F]Sri-07-56, [^18F]Sri-07-52, [^18F]JHU1221823, [^18F]FAPI-74), tissue % ID/g with carrier or blocker; assay type: in vivo, mouse
Text: Biodistribution of Representative Compounds

FAP = FAP (Homo sapiens (Human), UniProt Q12884); test: FAP inhibition assay (recombinant enzyme, Z-Gly-Pro-AMC substrate); assay type: biochemical; conditions: Table 3
Method: (§1) PSMA binding affinities of the compounds were determined using a competitive inhibition assay as previously reported. […] FAP, prolyl endopeptidase (PREP), and […] (DPPIV) inhibition assays: Recombinant enzymes (FAP, PREP, DPPIV) were purchased from R&D Systems (Minneapolis, MN). […] Z-Gly-Pro-AMC was used as a substrate for FAP and PREP. H-Gly-Pro-AMC was used as a substrate for DPPIV. The recombinant enzyme (0.4 μg/mL) was incubated with varying amounts of the test articles in the presence of the designated substrate (80 μM) for 10 min at room temperature. Fluorescence intensity was measured with 380 nm excitation and 460 nm emission using the Cytation 5 Cell Imaging Multi-Mode Reader (BioTek, Winooski, VT). IC50 and Ki values were obtained using a sigmoidal dose-response function.

DPPIV = DPPIV (Homo sapiens (Human), UniProt P27487); test: DPPIV inhibition assay (recombinant enzyme, H-Gly-Pro-AMC substrate); assay type: biochemical; conditions: Table 3; read-out: DPPIV IC50
Method: as §1

FAP, sequence (Q12884 whole entry): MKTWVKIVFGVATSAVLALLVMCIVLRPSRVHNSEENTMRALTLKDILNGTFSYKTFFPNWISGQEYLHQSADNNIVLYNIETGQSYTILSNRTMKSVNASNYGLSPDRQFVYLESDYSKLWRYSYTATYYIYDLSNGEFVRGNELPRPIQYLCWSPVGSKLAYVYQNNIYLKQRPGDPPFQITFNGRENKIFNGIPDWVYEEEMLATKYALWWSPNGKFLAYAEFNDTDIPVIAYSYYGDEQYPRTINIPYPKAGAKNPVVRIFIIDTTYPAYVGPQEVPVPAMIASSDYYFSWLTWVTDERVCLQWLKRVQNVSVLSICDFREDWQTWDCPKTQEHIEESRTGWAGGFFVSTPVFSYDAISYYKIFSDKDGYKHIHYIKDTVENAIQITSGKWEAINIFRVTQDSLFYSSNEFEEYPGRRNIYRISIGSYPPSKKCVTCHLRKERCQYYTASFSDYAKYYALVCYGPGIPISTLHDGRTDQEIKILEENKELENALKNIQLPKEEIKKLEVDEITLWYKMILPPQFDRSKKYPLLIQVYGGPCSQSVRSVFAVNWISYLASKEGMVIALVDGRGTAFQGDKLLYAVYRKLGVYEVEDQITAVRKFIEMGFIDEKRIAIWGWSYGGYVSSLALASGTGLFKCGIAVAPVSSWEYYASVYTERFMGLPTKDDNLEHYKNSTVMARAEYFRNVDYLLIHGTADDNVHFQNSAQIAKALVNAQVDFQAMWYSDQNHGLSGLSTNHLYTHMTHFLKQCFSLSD
DPPIV, sequence (P27487 whole entry): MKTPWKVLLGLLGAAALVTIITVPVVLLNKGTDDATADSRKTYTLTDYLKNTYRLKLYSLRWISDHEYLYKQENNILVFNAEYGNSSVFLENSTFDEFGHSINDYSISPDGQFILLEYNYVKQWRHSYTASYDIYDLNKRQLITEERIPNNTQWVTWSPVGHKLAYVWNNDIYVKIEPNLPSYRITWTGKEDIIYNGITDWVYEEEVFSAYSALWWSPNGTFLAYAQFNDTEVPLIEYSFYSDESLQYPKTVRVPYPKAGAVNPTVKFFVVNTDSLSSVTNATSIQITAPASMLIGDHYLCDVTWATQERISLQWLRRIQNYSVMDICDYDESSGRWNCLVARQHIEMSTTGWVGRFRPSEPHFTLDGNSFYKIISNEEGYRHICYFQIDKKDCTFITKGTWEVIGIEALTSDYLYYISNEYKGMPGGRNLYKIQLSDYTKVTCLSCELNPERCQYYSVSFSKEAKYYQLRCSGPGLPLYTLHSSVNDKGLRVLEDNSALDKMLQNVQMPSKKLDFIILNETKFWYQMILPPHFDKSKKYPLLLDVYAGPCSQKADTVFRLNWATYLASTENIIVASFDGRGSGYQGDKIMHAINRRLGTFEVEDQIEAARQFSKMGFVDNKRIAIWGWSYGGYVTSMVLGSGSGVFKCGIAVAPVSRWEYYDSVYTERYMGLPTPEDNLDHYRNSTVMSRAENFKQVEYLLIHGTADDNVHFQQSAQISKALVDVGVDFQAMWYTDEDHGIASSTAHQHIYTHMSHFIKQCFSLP

## N#CC1CCCN1C(=O)CNC(=O)c1ccnc2ccc(OCCCNC(=O)CCc3cn(CCC(NC(=O)c4ccc([18F])nc4)C(=O)NCCNC(=O)CN4CCN(CC(=O)O)CCN(CC(=O)O)CCN(CC(=O)O)CC4)nn3)cc12 (stereo not shown) [[^18F]Sri-07-56]
[1]
  % ID/g Blood (individual mouse): 10.48 % ID/g and 7.56 % ID/g
  % ID/g Heart (individual mouse): 4.72 % ID/g and 3.07 % ID/g
  % ID/g Liver (individual mouse): 2.82 % ID/g and 2.25 % ID/g
  % ID/g Lung (individual mouse): 5.06 % ID/g and 3.66 % ID/g
  % ID/g Mean Blood: 9.02 % ID/g
  % ID/g Mean Heart: 3.90 % ID/g
  % ID/g Mean Liver: 2.54 % ID/g
  % ID/g Mean Lung: 4.36 % ID/g
  % ID/g Mean Spleen: 1.91 % ID/g
  % ID/g Spleen (individual mouse): 2.19 % ID/g and 1.64 % ID/g
[2]
  Bladder % ID/g Mean: 0.99 % ID/g
  Brain % ID/g Mean: 0.22 % ID/g
  Fat % ID/g Mean: 0.89 % ID/g
  Femur % ID/g Mean: 1.32 % ID/g
  Kidney % ID/g Mean: 2.10 % ID/g
  Large intestine % ID/g Mean: 0.93 % ID/g
  Muscle % ID/g Mean: 0.90 % ID/g
  Pancreas % ID/g Mean: 2.18 % ID/g
  Salivary gland % ID/g Mean: 3.55 % ID/g
  Small intestine % ID/g Mean: 1.73 % ID/g
  Stomach % ID/g Mean: 0.86 % ID/g
  Tumor % ID/g Mean: 1.78 % ID/g
[2]; individual mice
  Bladder % ID/g: 0.86 % ID/g and 1.12 % ID/g
  Brain % ID/g: 0.28 % ID/g and 0.16 % ID/g
  Fat % ID/g: 0.38 % ID/g and 1.40 % ID/g
  Femur % ID/g: 1.63 % ID/g and 1.01 % ID/g
  Kidney % ID/g: 2.24 % ID/g and 1.96 % ID/g
  Large intestine % ID/g: 0.90 % ID/g and 0.95 % ID/g
  Muscle % ID/g: 0.74 % ID/g and 1.06 % ID/g
  Pancreas % ID/g: 2.39 % ID/g and 1.96 % ID/g
  Salivery gland % ID/g: 4.40 % ID/g and 2.70 % ID/g
  Small intestine % ID/g: 2.06 % ID/g and 1.40 % ID/g
  Stomach % ID/g: 1.05 % ID/g and 0.67 % ID/g
  Tumor % ID/g: 1.86 % ID/g and 1.70 % ID/g

## N#C[C@@H]1CCCN1C(=O)CNC(=O)c1ccnc2ccc(F)cc12 [JHU1220450]
FAP
  IC50: 0.119 nM
FAP; read-out: FAP Ki
  Ki: 0.0239 nM
DPPIV
  IC50: > 20000 nM
